The values that follow come from patent US20240116946A1 (Gilead Sciences, Inc., priority 2022, published 2024).

Where two headings read alike, the source gives them in different places. Some results are limits rather than exact numbers.

In assay [1] the target is recombinant SARS-CoV-2 Main protease (Mpro) (Severe acute respiratory syndrome coronavirus 2 (2019-nCoV) (SARS-CoV-2), UniProt P0DTD1). The experiment in a line: Cov Mpro Biochemical IC50 Assay. The note with it: read-out: MPro IC50.
A further assay deals with SARS-CoV-2-NLuc. Nature of the assay: microbe, parasite or virus in culture. The assay is classed as cell-based, SARS Coronavirus 2.
Where [2] appears, read: recombinant SARS-CoV-2 Mpro 7.5 nM, fluorogenic peptide substrate 40 μM.
Setting [3] is: Severe acute respiratory syndrome coronavirus, 48 h; read-out: MPro EC50.
[4] abbreviates: Severe acute respiratory syndrome coronavirus, 48 h, read-out: MPro EC50.
Setting [5] is: recombinant SARS-CoV-2 Mpro, fluorogenic peptide substrate.

In general, IC50 refers to the concentration needed to halve the response being measured. Broadly, the EC50 is the concentration giving half of the maximal effect. `Cc1cnc(F)c(-n2c(=O)c3sc(-c4ccccc4Cl)cc3n(CCC#N)c2=O)c1` [Example 771]: the half-inhibitory concentration (IC50) in assay [1] (setting [2]) worked out at 3.68 nM. Moreover, in the assay on SARS-CoV-2-NLuc (setting [3]), the EC50 worked out at 6.03 nM.

As for `COc1cc(-c2cc3c(s2)c(=O)n(-c2cncc(C)c2)c(=O)n3CCC#N)c(Cl)cc1F` [Example 981], the 50% inhibitory concentration (IC50) in assay [1] (setting [2]) is 1.38 nM. Besides, the 50% effective concentration (EC50) with SARS-CoV-2-NLuc (setting [4]) amounted to 1.39 nM.

On to `Cc1ncc(-c2cccc(Cl)c2-c2cc3[nH]c(=O)n(-c4cncc5ccccc45)c(=O)c3s2)n1C` [Example 521], for which the IC50 in assay [1] (setting [2]) was found to be 14.9 nM. Besides, in the assay with SARS-CoV-2-NLuc (setting [4]), the EC50 is 129 nM.

Turning to `O=c1[nH]c2cc(-c3ccc(F)cc3Cl)sc2c(=O)n1-c1cncc2ccccc12` [Example 13], in assay [1] (setting [5]), the half-maximal inhibitory concentration (IC50) was 17.1 nM. Besides, the 50% effective concentration (EC50) in the assay on SARS-CoV-2-NLuc (setting [4]) was found to be 42.4 nM.

`O=c1[nH]c2cc(-c3c(Cl)cc(Cl)c4c3CCO4)sc2c(=O)n1-c1cncc2ccccc12` [Example 647]: in assay [1] (setting [2]), the IC50 was found to be 10.9 nM. The EC50 in the assay on SARS-CoV-2-NLuc (setting [4]) was 25.9 nM.

With `COCc1ccccc1-c1ccc2c(=O)n(-c3cncc4ccccc34)c(=O)[nH]c2c1` [Example 54], in assay [1] (setting [5]), the half-maximal inhibitory concentration (IC50) was determined as 741 nM. Also, the concentration giving a half-maximal response (EC50) in the assay on SARS-CoV-2-NLuc (setting [4]) amounted to 1630 nM.

As for `NC(=O)c1cc(-c2cccc(Cl)c2-c2ccc3c(=O)n(-c4cncc5ccccc45)c(=O)[nH]c3c2)ccc1F` [Example 260], the IC50 in assay [1] (setting [5]) is 15.3 nM. The concentration for a half-maximal effect (EC50) in the assay on SARS-CoV-2-NLuc (setting [4]) was 10.3 nM.

For `COc1cc(-c2ccc3c(=O)n(-c4cncc5ccccc45)c(=O)[nH]c3c2)c(C#N)cn1` [Example 335], the IC50 in assay [1] (setting [5]) worked out at 290 nM. The 50% effective concentration (EC50) in the assay with SARS-CoV-2-NLuc (setting [4]) was found to be 991 nM.

As for `O=c1[nH]c2cc(-c3ccccc3Cl)sc2c(=O)n1-c1cncc2ccoc12` [Example 490], the concentration for half-maximal inhibition (IC50) in assay [1] (setting [2]) stood at 20.8 nM. Also, in the assay on SARS-CoV-2-NLuc (setting [4]), the EC50 came to 55.8 nM.

On to `Cc1c2c(-n3c(=O)c4sc(-c5cc(F)c(F)cc5Cl)cc4n(CCC#N)c3=O)cncc2nn1C` [Example 798], for which the IC50 in assay [1] (setting [2]) amounted to 38.7 nM. In addition, the EC50 with SARS-CoV-2-NLuc (setting [3]) is 137 nM.

On to `O=c1[nH]c2cc(-c3c(Cl)cccc3-c3ccc4c(c3)CCO4)ccc2c(=O)n1-c1cncc2ccccc12` [Example 179], for which the 50% inhibitory concentration (IC50) in assay [1] (setting [5]) stood at 195 nM. Moreover, the concentration giving a half-maximal response (EC50) in the assay on SARS-CoV-2-NLuc (setting [4]) was determined as 84.8 nM.

Regarding `COc1ccc(Cl)c(-c2ccc3c(=O)n(-c4cncc5c4CCCO5)c(=O)[nH]c3c2)c1` [Example 597], the IC50 in assay [1] (setting [2]) turned out to be 160 nM. Besides, the EC50 with SARS-CoV-2-NLuc (setting [4]) was 205 nM.

As to `O=c1[nH]c2cc(-c3ccccc3Cl)sc2c(=O)n1-c1cncc2ccc(N3CC(F)(F)OC(F)(F)C3)cc12` [Example 228], in assay [1] (setting [5]), the IC50 is 294 nM. Also, in the assay on SARS-CoV-2-NLuc (setting [4]), the EC50 stood at 73.1 nM.

With `CC(C)(O)[C@H](F)CNc1ccc2cncc(-n3c(=O)[nH]c4cc(-c5ccccc5Cl)sc4c3=O)c2c1` [Example 386], the half-maximal inhibitory concentration (IC50) in assay [1] (setting [5]) is 3.96 nM. Further, the EC50 in the assay with SARS-CoV-2-NLuc (setting [4]) was 56.2 nM.

For the compound `NC(=O)c1ccccc1-c1cc2[nH]c(=O)n(-c3cncc4ccccc34)c(=O)c2s1` [Example 3], the 50% inhibitory concentration (IC50) in assay [1] (setting [5]) stood at 312 nM. The EC50 with SARS-CoV-2-NLuc (setting [4]) was over 50000 nM.

Turning to `COc1cc(-c2cc3c(s2)c(=O)n(-c2cncc(Cl)c2Cl)c(=O)n3CCC#N)c(Cl)cc1F` [Example 928], the IC50 in assay [1] (setting [2]) was found to be 12.2 nM. For the same compound, the EC50 in the assay with SARS-CoV-2-NLuc (setting [4]) was found to be 16.2 nM.

Consider `COc1cc(-c2cc3c(s2)c(=O)n(-c2cncc4ccccc24)c(=O)n3CC(C)(C)C#N)c(Cl)cc1F` [Example 698], for which the concentration for half-maximal inhibition (IC50) in assay [1] (setting [2]) was found to be 7.1 nM. The concentration giving a half-maximal response (EC50) in the assay on SARS-CoV-2-NLuc (setting [4]) was found to be 14.1 nM.

As for `O=c1[nH]c2cc(-c3ccccc3F)sc2c(=O)n1-c1cncc2ccccc12` [Example 9], the IC50 in assay [1] (setting [5]) amounted to 159 nM. Moreover, the concentration for a half-maximal effect (EC50) with SARS-CoV-2-NLuc (setting [4]) came to 295 nM.

Regarding `COc1cc(-c2cc3[nH]c(=O)n(-c4cncc5cnn(CC(F)F)c45)c(=O)c3s2)c(Cl)cc1F` [Example 730], the IC50 in assay [1] (setting [2]) amounted to 10.1 nM. Besides, the EC50 with SARS-CoV-2-NLuc (setting [4]) was found to be 28.9 nM.

Regarding `Cc1nn(C)cc1-c1cccc(Cl)c1-c1cc2[nH]c(=O)n(-c3cncc4ccccc34)c(=O)c2s1` [Example 518, 6-[2-chloro-6-(1,3-dimethylpyrazol-4-yl)phenyl]-3-(4-isoquinolyl)-1H-thieno[3,2-d]pyrimidine-2,4-dione], in assay [1] (setting [2]), the half-inhibitory concentration (IC50) amounted to 9.15 nM. Also, the concentration giving a half-maximal response (EC50) with SARS-CoV-2-NLuc (setting [4]) turned out to be 5.49 nM.

`O=c1[nH]c2cc(-c3c(Cl)cccc3-c3cncc(N4CCOCC4)c3)ccc2c(=O)n1-c1cncc2ccccc12` [Example 279]: in assay [1] (setting [5]), the IC50 stood at 5.27 nM. The EC50 with SARS-CoV-2-NLuc (setting [4]) was determined as 7.65 nM.

On to `COc1ccc(C#N)c(-c2cc3[nH]c(=O)n(-c4cncc5ccccc45)c(=O)c3cc2OC)c1` [Example 312], for which the IC50 in assay [1] (setting [5]) was 14.3 nM. Moreover, in the assay on SARS-CoV-2-NLuc (setting [4]), the 50% effective concentration (EC50) came to 20.4 nM.

For `Cc1c(F)cncc1-n1c(=O)c2sc(-c3cc(F)c(F)cc3Cl)cc2n(CCC#N)c1=O` [Example 850], the concentration for half-maximal inhibition (IC50) in assay [1] (setting [2]) worked out at 26.7 nM. In the assay with SARS-CoV-2-NLuc (setting [3]), the 50% effective concentration (EC50) worked out at 54.2 nM.

As for `COc1cc(-c2cc(OC)c3c(=O)n(-c4cncc5ccccc45)c(=O)[nH]c3c2)c(C#N)cc1F` [Example 679], the IC50 in assay [1] (setting [2]) was found to be 25.4 nM. In the assay on SARS-CoV-2-NLuc (setting [4]), the 50% effective concentration (EC50) is 80.1 nM.

In the case of `O=C1COc2ccc(-c3cccc(Cl)c3-c3ccc4c(=O)n(-c5cncc6ccccc56)c(=O)[nH]c4c3)cc2N1` [Example 304], in assay [1] (setting [5]), the IC50 amounted to 11.5 nM. Further, the EC50 with SARS-CoV-2-NLuc (setting [4]) amounted to 20.5 nM.

As for `O=c1[nH]c2cc(-c3ccccc3Cl)sc2c(=O)n1-c1cncc(OCC(F)(F)F)c1` [Example 381], the concentration for half-maximal inhibition (IC50) in assay [1] (setting [5]) was found to be 5070 nM. In the assay with SARS-CoV-2-NLuc (setting [4]), the EC50 was 145 nM.

Turning to `COc1ccc2cncc(-n3c(=O)[nH]c4cc(-c5ccccc5Cl)sc4c3=O)c2c1` [Example 175, 6-(2-chlorophenyl)-3-(6-methoxyisoquinolin-4-yl)thieno[3,2-d]pyrimidine-2,4(1H,3H)-dione], the IC50 in assay [1] (setting [5]) came out at 4.68 nM. Moreover, the EC50 in the assay with SARS-CoV-2-NLuc (setting [4]) amounted to 26.6 nM.

In the case of `COc1ccc(C#N)c(-c2cc3c(cc2F)c(=O)n(-c2cncc4ccccc24)c(=O)n3CCC#N)c1` [Example 902], the concentration for half-maximal inhibition (IC50) in assay [1] (setting [2]) amounted to 87.3 nM. The half-maximal effective concentration (EC50) with SARS-CoV-2-NLuc (setting [4]) was determined as 134 nM.

With `COc1cc(-c2cc3c(s2)c(=O)n(-c2cncc4ccn(C)c(=O)c24)c(=O)n3CC#N)c(Cl)cc1F` [Example 696], the concentration for half-maximal inhibition (IC50) in assay [1] (setting [2]) was determined as 3.15 nM. For the same compound, the half-maximal effective concentration (EC50) in the assay on SARS-CoV-2-NLuc (setting [4]) was determined as 29.2 nM.

For the compound `CN1CCN(c2ccc3cncc(-n4c(=O)[nH]c5cc(-c6ccccc6Cl)sc5c4=O)c3c2)CC1` [Example 400], in assay [1] (setting [2]), the half-inhibitory concentration (IC50) is 6.04 nM. In addition, in the assay with SARS-CoV-2-NLuc (setting [4]), the half-maximal effective concentration (EC50) came out at 6.07 nM.

For the compound `COc1cc(-c2cc3c(s2)c(=O)n(-c2cncc4nnn(C)c24)c(=O)n3CCC#N)c(C#N)cc1F` [Example 878], the IC50 in assay [1] (setting [2]) turned out to be 15.8 nM. Also, the EC50 in the assay with SARS-CoV-2-NLuc (setting [4]) is 90 nM.

On to `COCCn1c(=O)n(-c2cncc3ccccc23)c(=O)c2sc(-c3ccccc3Cl)cc21` [Example 470, 6-(2-chlorophenyl)-3-(4-isoquinolyl)-1-(2-methoxyethyl)thieno[3,2-d]pyrimidine-2,4-dione], for which the 50% inhibitory concentration (IC50) in assay [1] (setting [2]) amounted to 46.8 nM. Also, the EC50 in the assay on SARS-CoV-2-NLuc (setting [4]) came out at 71.3 nM.

As for `COc1ccc(Cl)c(-c2ccc3c(=O)n(-c4cncc5c(Cl)cccc45)c(=O)[nH]c3c2)c1` [Example 593], in assay [1] (setting [2]), the half-inhibitory concentration (IC50) came to 38400 nM. Also, the EC50 in the assay with SARS-CoV-2-NLuc (setting [4]) came out at 5790 nM.

Regarding `COc1cc(-c2cc3[nH]c(=O)n(-c4cncc5cc(C(=O)N(C)C)sc45)c(=O)c3s2)c(Cl)cc1F` [Example 1010, 7-[6-(2-chloro-4-fluoro-5-methoxy-phenyl)-2,4-dioxo-1H-thieno[3,2-d]pyrimidin-3-yl]-N,N-dimethyl-thieno[3,2-c]pyridine-2-carboxamide], the IC50 in assay [1] (setting [2]) is 3.29 nM. Also, the EC50 in the assay on SARS-CoV-2-NLuc (setting [4]) is 69.2 nM.
